According to patent US10336746B1, “RAD51 inhibitors” (Cyteir Therapeutics, Inc., priority 2017, dated 2019):
Read-outs that look alike come from different tables or passages of the source.

Columns and labels:
[1] = Bi-directional Caco-2 permeability; type: in vitro ADME; conditions: human; for efflux ratio at 90 min: Caco-2, read-out: BA/AB Ratio; for Papp A→B at 90 min: Caco-2, apical to basolateral, read-out: AB Papp (cm/sec × 10^6); for Papp A→B at 90 min / Papp B→A at 90 min: 37 C, up to 90 minutes; for Papp B→A at 90 min: Caco-2, basolateral to apical, read-out: BA Papp (cm/sec × 10^6)
Description: Bi-directional Caco-2 permeability was assayed. Caco-2 cells were seeded onto permeable polycarbonate supports and allowed to differentiate for about 3 weeks prior to being used in the assays. The cells were then exposed to the compounds from either the apical or basolateral sides and incubated at 37 C for up to 90 minutes under light agitation. Compound transport was then measured using LC/MS/MS analysis at 30, 60, and 90 minutes.

[2] = system: WI-38 cells (AID negative); experiment: Primary screening cell killing assay repeated in WI-38 cells (AID negative); type: cell-based; conditions: Homo sapiens, 168 h, cell death on Day 7, Cell-Titer Glo
Description: Primary screening was a phenotypic screen that utilized the synthetic lethal interaction between AID and RAD51 to identify compounds that were both potent and on target. AID expressing cells are dependent upon RAD51 for survival; inhibiting RAD51 in AID positive cells results in a cytotoxic effect.
Percent cell death and EC50 values were calculated by comparing the cell viability of the compound treated wells to the non-treated wells. Normalized RLU values were obtained by subtracting the media well values from each of the wells in the same column, and then dividing that value by the DMSO treated cells values. The percent kill was then calculated by subtracting the normalized RLU value from 1 and multiplying by 100. The average normalized percent kill value and standard error of the mean was then calculated. The kill values were then inputted into Prism with the corresponding standard errors. In Prism a non-linear regression line was plotted with the data points using a semi-log scale, and the EC50 value was calculated.

[3] = system: Daudi cell line (AID positive); experiment: Primary screening cell killing assay, Daudi cell line (AID positive); type: cell-based; conditions: Homo sapiens, 168 h, cell death on Day 7, Cell-Titer Glo
Procedure, shortened: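 AID-positive Daudi cells, 1250 per well, were exposed to serially diluted compounds for 7 days at 37° C. Viability read by CellTiter-Glo luminescence; percent cell death and EC50 derived against untreated wells after media-blank subtraction.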

[4] = Caco-2, Caco-2, AB direction, read-out: AB Recovery %
[5] = Caco-2, Caco-2, BA direction, read-out: BA Recovery %

Structure (SMILES)	recovery at 90 min [1, 4]	recovery at 90 min [1, 5]	efflux ratio at 90 min [1]	Papp A→B at 90 min [1]	Papp B→A at 90 min [1]	EC50 [2]	EC50 [3]
CC(C)(C)NS(=O)(=O)c1cc(NC(=O)NCc2ccccc2)ccc1-c1cnc([C@H]2CC[C@H](NC(=O)OC(C)(C)C)CC2)s1 [Ex. 10, trans-tert-butyl N-[4-[5-[4-(benzylcarbamoylamino)-2-(tert-butylsulfamoyl)phenyl]thiazol-2-yl]cyclohexyl]carbamate]	59.9%	87.2%	1.3	1.2 ×10⁻⁶ cm/s	1.5 ×10⁻⁶ cm/s	> 1 µM	≤ 0.1 µM
CC(C)OC(=O)Nc1ccc(-c2cnc(C34CCC(NC(=O)OC(C)C)(CC3)CC4)s2)c(S(=O)(=O)NC(C)(C)C)c1 [Ex. 17, isopropyl N-[3-(tert-butylsulfamoyl)-4-[2-[4-(isopropoxycarbonylamino)-1-bicyclo[2.2.2]octanyl]thiazol-5-yl]phenyl]carbamate]	47.2%	81.9%	0.8	2.8 ×10⁻⁶ cm/s	2.1 ×10⁻⁶ cm/s	> 1 µM	0.1 to 1 µM
CC(C)OC(=O)N[C@H]1CC[C@H](c2ncc(-c3ccc(NC(=O)NCc4cccc(F)c4)cc3S(=O)(=O)NC(C)(C)C)s2)CC1 [Ex. 27, isopropyl ((1r,4r)-4-(5-(2-(N-(tert-butyl)sulfamoyl)-4-(3-(3-fluorobenzyl)ureido)phenyl)thiazol-2-yl)cyclohexyl)carbamate]	92%	107%	0.7	0.7 ×10⁻⁶ cm/s	0.5 ×10⁻⁶ cm/s	> 1 µM	≤ 0.1 µM
CC(C)OC(=O)N[C@H]1CC[C@H](c2ncc(-c3ccc(NC(=O)N[C@H](C)c4ccccn4)cc3S(=O)(=O)NC(C)(C)C)s2)CC1 [Ex. 30, isopropyl ((1R,4r)-4-(5-(2-(N-(tert-butyl)sulfamoyl)-4-(3-((R)-1-(pyridin-2-yl)ethyl)ureido)phenyl)thiazol-2-yl)cyclohexyl)carbamate]	79.8%	116%	1.4	11.5 ×10⁻⁶ cm/s	15.7 ×10⁻⁶ cm/s	> 1 µM	≤ 0.1 µM
CC(C)OC(=O)NC1CCC(c2ncc(-c3ccc(NC(=O)OC4COC4)cc3S(=O)(=O)NC(C)(C)C)s2)CC1 (stereo not shown) [Ex. 38, isopropyl ((1r,4r)-4-(5-(2-(N-(tert-butyl)sulfamoyl)-4-(((oxetan-3-yloxy)carbonyl)amino)phenyl)thiazol-2-yl)cyclohexyl)carbamate]	73.3%	82.3%	1.3	17.9 ×10⁻⁶ cm/s	22.9 ×10⁻⁶ cm/s	> 1 µM	≤ 0.1 µM
CC(C)(C)NS(=O)(=O)c1cc(NC(=O)NCc2ccccc2)ccc1-c1cnc([C@H]2CC[C@H](NC(=O)OC3COC3)CC2)s1 [Ex. 47, trans-oxetan-3-yl N-[4-[5-[4-(benzylcarbamoylamino)-2-(tert-butylsulfamoyl)phenyl]thiazol-2-yl]cyclohexyl]carbamate]	65.3%	80.7%	1.4	8.7 ×10⁻⁶ cm/s	12.4 ×10⁻⁶ cm/s	> 1 µM	≤ 0.1 µM
CC(C)OC(=O)Nc1ccc(-c2cnc(C3CCC(NC(=O)OC4COC4)CC3)s2)c(S(=O)(=O)NC(C)(C)C)c1 (stereo not shown) [Ex. 48, oxetan-3-yl ((1r,4r)-4-(5-(2-(N-(tert-butyl)sulfamoyl)-4-((isopropoxycarbonyl)amino)phenyl)thiazol-2-yl)cyclohexyl)carbamate]	80.1%	90.3%	0.7	23.1 ×10⁻⁶ cm/s	16 ×10⁻⁶ cm/s	> 1 µM	0.1 to 1 µM
CC(C)(C)NS(=O)(=O)c1cc(NC(=O)NCc2ccccn2)ccc1-c1cnc(C2CCC(NC(=O)OC3COC3)CC2)s1 (stereo not shown) [Ex. 50, oxetan-3-yl ((1r,4r)-4-(5-(2-(N-(tert-butyl)sulfamoyl)-4-(3-(pyridin-2-ylmethyl)ureido)phenyl)thiazol-2-yl)cyclohexyl)carbamate]	87.7%	98.1%	14.6	2 ×10⁻⁶ cm/s	29.1 ×10⁻⁶ cm/s	> 1 µM	≤ 0.1 µM
C[C@H](NC(=O)Nc1ccc(-c2cnc(C3CCC(NC(=O)OC4COC4)CC3)s2)c(S(=O)(=O)NC(C)(C)C)c1)c1ccccc1 (stereo partly drawn) [Ex. 51, oxetan-3-yl ((1S,4r)-4-(5-(2-(N-(tert-butyl)sulfamoyl)-4-(3-((S)-1-phenylethyl)ureido)phenyl)thiazol-2-yl)cyclohexyl)carbamate]	65%	85.7%	1.1	9.9 ×10⁻⁶ cm/s	10.5 ×10⁻⁶ cm/s	> 1 µM	≤ 0.1 µM
C[C@@H](NC(=O)Nc1ccc(-c2cnc(C3CCC(NC(=O)OC4COC4)CC3)s2)c(S(=O)(=O)NC(C)(C)C)c1)c1ccccc1 (stereo partly drawn) [Ex. 52, oxetan-3-yl ((1R,4r)-4-(5-(2-(N-(tert-butyl)sulfamoyl)-4-(3-((R)-1-phenylethyl)ureido)phenyl)thiazol-2-yl)cyclohexyl)carbamate]	64.1%	91.7%	1.5	7.4 ×10⁻⁶ cm/s	10.9 ×10⁻⁶ cm/s	> 1 µM	≤ 0.1 µM
CC(C)(C)NS(=O)(=O)c1cc(NC(=O)NCc2ccccc2F)ccc1-c1cnc(C2CCC(NC(=O)OC3COC3)CC2)s1 (stereo not shown) [Ex. 53, oxetan-3-yl ((1r,4r)-4-(5-(2-(N-(tert-butyl)sulfamoyl)-4-(3-(2-fluorobenzyl)ureido)phenyl)thiazol-2-yl)cyclohexyl)carbamate]	63.1%	90.9%	1	9.3 ×10⁻⁶ cm/s	9.7 ×10⁻⁶ cm/s	> 1 µM	≤ 0.1 µM
C[C@H](NC(=O)Nc1ccc(-c2cnc(C3CCC(NC(=O)OC4COC4)CC3)s2)c(S(=O)(=O)NC(C)(C)C)c1)c1ccccc1F (stereo partly drawn) [Ex. 55, oxetan-3-yl ((1S,4r)-4-(5-(2-(N-(tert-butyl)sulfamoyl)-4-(3-((S)-1-(2-fluorophenyl)ethyl)ureido)phenyl)thiazol-2-yl)cyclohexyl)carbamate]	65.2%	83.8%	1.1	6.5 ×10⁻⁶ cm/s	7 ×10⁻⁶ cm/s	> 1 µM	≤ 0.1 µM
CC(C)OC(=O)N[C@H]1CC[C@H](c2nc(F)c(-c3ccc(NC(=O)NCc4ccccc4)cc3S(=O)(=O)NC(C)(C)C)s2)CC1 [Ex. 57, trans-isopropyl N-[4-[5-[4-(benzylcarbamoylamino)-2-(tert-butylsulfamoyl)phenyl]-4-fluoro-thiazol-2-yl]cyclohexyl]carbamate]	61.9%	86.8%	2.7	1.3 ×10⁻⁶ cm/s	3.5 ×10⁻⁶ cm/s	> 1 µM	≤ 0.1 µM
CC(C)OC(=O)Nc1ccc(-c2sc(C3CCC(NC(=O)OC(C)C)CC3)nc2F)c(S(=O)(=O)NC(C)(C)C)c1 (stereo not shown) [Ex. 58, isopropyl ((1r,4r)-4-(5-(2-(N-(tert-butyl)sulfamoyl)-4-((isopropoxycarbonyl)amino)phenyl)-4-fluorothiazol-2-yl)cyclohexyl)carbamate]	52.3%	83.5%	0.7	5.1 ×10⁻⁶ cm/s	3.4 ×10⁻⁶ cm/s	> 1 µM	0.1 to 1 µM
CC(C)OC(=O)N[C@@H]1CC[C@@H](c2ncc(-c3ccc(NC(=O)NCc4ccccc4)cc3S(=O)(=O)NC(C)(C)C)s2)OC1 [Ex. 59A]	55.6%	85.5%	3.1	3.1 ×10⁻⁶ cm/s	9.6 ×10⁻⁶ cm/s	> 1 µM	0.1 to 1 µM
CC(C)OC(=O)N[C@H]1CC[C@H](c2ncc(-c3ccc(NC(=O)NCc4ccccc4)cc3S(=O)(=O)NC(C)(C)C)s2)OC1 [Ex. 59B]	56.2%	82%	2.1	4.6 ×10⁻⁶ cm/s	9.7 ×10⁻⁶ cm/s	> 1 µM	≤ 0.1 µM
CC(C)OC(=O)Nc1ccc(-c2cnc([C@@H]3CC[C@@H](NC(=O)OC(C)C)CO3)s2)c(S(=O)(=O)NC(C)(C)C)c1 [Ex. 60A]	55.3%	86%	0.9	12 ×10⁻⁶ cm/s	11.2 ×10⁻⁶ cm/s	> 1 µM	> 1 µM
CC(C)OC(=O)N[C@H]1CC[C@H](c2ncc(-c3ccc(NC(=O)NCc4ccccc4)cc3S(=O)(=O)NC(C)(C)CO)s2)CC1 [Ex. 74, trans-isopropyl N-[4-[5-[4-(benzylcarbamoylamino)-2-[(2-hydroxy-1,1-dimethyl-ethyl)sulfamoyl]phenyl]thiazol-2-yl]cyclohexyl]carbamate]	–	–	–	–	–	> 1 µM	≤ 0.1 µM
